Data from ChEMBL document CHEMBL1201862, “PubChem BioAssay data set” (2004).
Active and inactive are the calls of the source.

Columns and labels:
fMet-Leu-Phe receptor = fMet-Leu-Phe receptor (Homo sapiens, UniProt P21462); assay: formyl peptide receptor binders – dose response (AID 519); type: functional
[1] = Late stage counterscreen for inhibitors of Trypanosoma brucei methionyl tRNA synthetase (MetRS): Luminescence-based cell-based high throughput dose response assay to identify compounds that are cytotoxic to Jurkat human T lymphocyte cells.; type: functional
[2] = biological target: T1, Methionyl-tRNA synthetase, putative (Trypanosoma brucei brucei, UniProt Q38C91); type: functional, Trypanosoma brucei brucei strain 927/4 GUTat10.1
T1 sequence (Q38C91 whole entry): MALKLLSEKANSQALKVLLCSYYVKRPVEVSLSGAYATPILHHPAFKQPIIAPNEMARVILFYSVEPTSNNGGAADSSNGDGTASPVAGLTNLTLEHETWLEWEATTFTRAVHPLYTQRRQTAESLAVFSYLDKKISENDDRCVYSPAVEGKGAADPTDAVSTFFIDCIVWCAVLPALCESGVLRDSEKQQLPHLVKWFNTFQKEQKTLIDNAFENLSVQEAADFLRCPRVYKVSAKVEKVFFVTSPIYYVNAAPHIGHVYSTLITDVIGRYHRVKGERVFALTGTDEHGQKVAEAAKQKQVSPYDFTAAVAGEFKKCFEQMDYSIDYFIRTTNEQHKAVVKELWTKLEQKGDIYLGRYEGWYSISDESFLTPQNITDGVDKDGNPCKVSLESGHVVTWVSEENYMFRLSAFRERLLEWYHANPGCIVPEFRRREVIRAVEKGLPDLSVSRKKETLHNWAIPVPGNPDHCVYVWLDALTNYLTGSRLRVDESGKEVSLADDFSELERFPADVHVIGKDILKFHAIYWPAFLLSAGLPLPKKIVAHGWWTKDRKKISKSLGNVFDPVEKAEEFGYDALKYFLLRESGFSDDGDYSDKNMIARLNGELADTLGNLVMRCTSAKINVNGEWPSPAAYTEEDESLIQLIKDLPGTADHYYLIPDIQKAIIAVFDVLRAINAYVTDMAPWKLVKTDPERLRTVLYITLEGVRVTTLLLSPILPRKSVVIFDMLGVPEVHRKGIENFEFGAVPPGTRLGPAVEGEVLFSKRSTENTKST

[3] = Counterscreen for inhibitors of Trypanosoma brucei methionyl tRNA synthetase (MetRS): Luminescence-based cell-based high throughput dose response assay to identify compounds that are cytotoxic to Jurkat human T lymphocyte cells.; type: functional
[4] = biological target: T1, Methionyl-tRNA synthetase, putative; type: functional, Trypanosoma brucei brucei strain 927/4 GUTat10.1; remark: listed apart in the source
[5] = IGROV1 cell killing – plate reader, dry powder samples, PAX8 inhibitor project, dose response (AID 743043); type: functional, cell-based; conditions: IGROV-1
Paired box protein Pax-8 = Paired box protein Pax-8 (Homo sapiens, UniProt Q06710); assay: PAX8 transcriptional activity inhibition in RMG-I – RMG-I cells, luciferase, cherry-pick, dose response (AID 687027); type: functional, cell-based;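 further: luciferase reporter driven by Pax8 target thyroperoxidase promoter measured by SteadyGlo luminescence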
Chain of Paired box protein Pax-8 (Q06710 whole entry): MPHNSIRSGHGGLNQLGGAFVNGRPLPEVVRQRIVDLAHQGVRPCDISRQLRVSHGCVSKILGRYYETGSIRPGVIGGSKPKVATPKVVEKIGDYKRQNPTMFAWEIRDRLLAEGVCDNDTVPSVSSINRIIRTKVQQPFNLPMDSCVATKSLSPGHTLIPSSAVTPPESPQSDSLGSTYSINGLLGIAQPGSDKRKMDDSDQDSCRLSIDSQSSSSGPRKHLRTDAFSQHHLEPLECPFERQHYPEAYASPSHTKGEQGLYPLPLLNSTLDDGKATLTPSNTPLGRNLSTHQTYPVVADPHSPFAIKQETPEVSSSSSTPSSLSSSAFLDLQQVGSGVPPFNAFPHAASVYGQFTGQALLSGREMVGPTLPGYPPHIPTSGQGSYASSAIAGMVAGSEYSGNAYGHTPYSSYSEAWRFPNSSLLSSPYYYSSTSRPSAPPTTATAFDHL

[6] = OVCAR8 cell viability loss – plate reader, dry powder samples, PAX8 project, dose response (AID 743197); type: functional, cell-based; conditions: OVCAR-8
[7] = A2780 cell killing – plate reader, dry powder samples, cytotoxicity control, dose response (AID 743046); type: functional, cell-based
[8] = OVCAR-3 cell viability loss – plate reader, dry powder samples, PAX8 inhibitor project, dose response (AID 743044); type: functional, cell-based
[9] = biological target: Endoplasmic reticulum aminopeptidase 1 (Homo sapiens, UniProt Q9NZ08); assay: inhibition of human ERAP1 enzyme activity – biochemical, cherry-pick, set 2, plate reader, dose response (AID 743314)
Chain of Endoplasmic reticulum aminopeptidase 1 (Q9NZ08 whole entry): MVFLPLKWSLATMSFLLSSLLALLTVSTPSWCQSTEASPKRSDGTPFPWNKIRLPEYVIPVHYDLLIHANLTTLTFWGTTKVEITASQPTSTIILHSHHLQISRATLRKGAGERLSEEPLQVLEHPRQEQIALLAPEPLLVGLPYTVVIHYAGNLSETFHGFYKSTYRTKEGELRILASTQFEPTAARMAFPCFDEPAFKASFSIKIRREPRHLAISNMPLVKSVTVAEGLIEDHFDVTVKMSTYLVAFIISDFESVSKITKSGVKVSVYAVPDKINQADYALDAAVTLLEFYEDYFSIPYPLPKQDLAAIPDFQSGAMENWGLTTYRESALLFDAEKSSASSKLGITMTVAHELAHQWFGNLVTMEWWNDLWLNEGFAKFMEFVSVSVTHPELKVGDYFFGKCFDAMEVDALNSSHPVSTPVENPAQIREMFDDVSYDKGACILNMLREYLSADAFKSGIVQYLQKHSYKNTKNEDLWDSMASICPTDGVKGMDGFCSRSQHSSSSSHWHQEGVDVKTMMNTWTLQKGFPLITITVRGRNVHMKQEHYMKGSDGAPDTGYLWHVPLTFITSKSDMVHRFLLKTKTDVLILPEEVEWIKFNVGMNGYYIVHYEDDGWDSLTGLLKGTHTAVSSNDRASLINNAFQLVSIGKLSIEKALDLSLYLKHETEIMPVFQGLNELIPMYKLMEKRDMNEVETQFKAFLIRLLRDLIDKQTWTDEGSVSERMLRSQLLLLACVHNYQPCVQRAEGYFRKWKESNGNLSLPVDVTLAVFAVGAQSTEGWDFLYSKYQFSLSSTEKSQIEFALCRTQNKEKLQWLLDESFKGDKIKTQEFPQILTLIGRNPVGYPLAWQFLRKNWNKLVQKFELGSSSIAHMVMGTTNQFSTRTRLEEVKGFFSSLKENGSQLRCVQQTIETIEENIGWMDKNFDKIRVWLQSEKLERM

[10] = viability loss in A549 lung cells – cell-based, 24 h, CellTiter-Glo luminescence, cherry-picks, cytotoxicity control, dose response (AID 1053115); type: functional; conditions: A549, 24 h
[11] = biological target: Induced myeloid leukemia cell differentiation protein Mcl-1 (Homo sapiens, UniProt Q07820); type: functional
Chain of Induced myeloid leukemia cell differentiation protein Mcl-1 (Q07820 whole entry): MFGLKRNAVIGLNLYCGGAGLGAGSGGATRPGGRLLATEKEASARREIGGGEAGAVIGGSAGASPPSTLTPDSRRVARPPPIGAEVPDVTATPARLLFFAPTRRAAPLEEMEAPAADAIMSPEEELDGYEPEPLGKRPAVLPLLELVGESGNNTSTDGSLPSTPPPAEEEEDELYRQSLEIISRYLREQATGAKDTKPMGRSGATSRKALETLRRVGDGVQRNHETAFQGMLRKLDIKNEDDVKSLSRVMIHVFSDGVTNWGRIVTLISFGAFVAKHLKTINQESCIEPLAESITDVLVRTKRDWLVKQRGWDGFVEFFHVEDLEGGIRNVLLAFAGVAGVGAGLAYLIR

[12] = inhibition of ADAM10 peptide cleavage – biochemical, FRET peptide substrate, recombinant human ADAM10, selectivity assay for ADAM17 exosite inhibitor project, dose response (AID 743259);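 further: ADAM10 enzyme cleaving a FRET peptide substrate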
[13] = biological target: Disintegrin and metalloproteinase domain-containing protein 17 (Homo sapiens, UniProt P78536); assay: exosite inhibitors of ADAM17, dose response, biochemical (AID 743260)
Chain of Disintegrin and metalloproteinase domain-containing protein 17 (P78536 whole entry, the tested form may be a part): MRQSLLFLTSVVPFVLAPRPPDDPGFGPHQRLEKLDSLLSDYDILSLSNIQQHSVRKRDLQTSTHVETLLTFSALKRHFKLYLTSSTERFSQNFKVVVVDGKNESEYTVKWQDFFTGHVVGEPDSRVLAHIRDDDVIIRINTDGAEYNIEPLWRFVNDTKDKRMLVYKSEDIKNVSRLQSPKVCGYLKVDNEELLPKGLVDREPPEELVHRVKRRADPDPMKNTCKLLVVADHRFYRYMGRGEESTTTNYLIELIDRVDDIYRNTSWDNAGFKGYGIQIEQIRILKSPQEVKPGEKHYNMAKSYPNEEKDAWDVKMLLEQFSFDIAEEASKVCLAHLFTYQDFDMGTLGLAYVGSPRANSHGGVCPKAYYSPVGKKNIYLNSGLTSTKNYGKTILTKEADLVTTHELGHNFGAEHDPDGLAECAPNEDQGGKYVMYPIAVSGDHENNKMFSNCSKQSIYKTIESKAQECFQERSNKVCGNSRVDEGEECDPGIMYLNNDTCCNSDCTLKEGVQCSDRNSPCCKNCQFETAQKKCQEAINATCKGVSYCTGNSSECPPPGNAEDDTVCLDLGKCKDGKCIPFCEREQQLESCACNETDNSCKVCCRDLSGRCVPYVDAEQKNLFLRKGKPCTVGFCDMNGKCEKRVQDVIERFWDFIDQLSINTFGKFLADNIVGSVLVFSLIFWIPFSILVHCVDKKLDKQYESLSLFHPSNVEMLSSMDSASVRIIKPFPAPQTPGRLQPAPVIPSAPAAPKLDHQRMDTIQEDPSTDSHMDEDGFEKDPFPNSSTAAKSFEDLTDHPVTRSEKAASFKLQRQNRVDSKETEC

Chain of fMet-Leu-Phe receptor (P21462 whole entry): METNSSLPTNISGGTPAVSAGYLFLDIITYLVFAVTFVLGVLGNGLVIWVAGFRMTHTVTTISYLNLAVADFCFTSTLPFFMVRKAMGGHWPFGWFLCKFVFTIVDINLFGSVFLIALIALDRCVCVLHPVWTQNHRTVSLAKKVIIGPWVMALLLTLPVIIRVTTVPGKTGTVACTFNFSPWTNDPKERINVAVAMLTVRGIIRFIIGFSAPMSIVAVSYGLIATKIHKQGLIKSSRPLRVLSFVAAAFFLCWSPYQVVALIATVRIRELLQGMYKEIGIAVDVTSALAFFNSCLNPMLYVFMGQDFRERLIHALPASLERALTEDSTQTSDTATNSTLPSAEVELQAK

With CCCc1nc2ccccc2c2nc(N)nn12 the Ki (fMet-Leu-Phe receptor) was > 66.7 µM (inactive).
With Cc1ccc(NC(=O)CN(C)C(=O)CCSc2ccc(F)cc2)cc1 the IC50 [1] was > 83.3 µM (inactive), the IC50 [2] was 4.57 µM (active) and the IC50 [3] was 83.3 µM (inactive). The IC50 [4] was 3.09 µM (active).
With COc1ccc(S(=O)(=O)Nc2ccc3c(c2)C(=O)N([C@H](C)CO)C[C@@H](C)[C@@H](CN(C)Cc2ccc(C(F)(F)F)cc2)OCCCC[C@@H](C)O3)cc1 the AC50 [5] was 65.2 µM (active), the AC50 (Paired box protein Pax-8) was 7.09 µM (active) and the AC50 [6] was 30.6 µM (active). The AC50 [7] was 51.2 µM (active) and the AC50 [8] was 27.9 µM (active).
For O=c1ccc2cc(O[C@@H]3O[C@@H](CO)[C@H](O)[C@@H](O)[C@@H]3O)c(O)cc2o1, the AC50 [9] was 2.37 µM (active).
With CCOC(=O)[C@@H]1[C@@H]2C=C[C@]3(O2)[C@H](C(=O)NCc2ccccc2)N(CCCCCCO)C(=O)[C@@H]13 the AC50 [10] was 48.1 µM (active).
For CN(C)c1ccc(NC(=O)c2ccc(COc3cccc(Cl)c3)o2)cc1, the IC50 [11] was 23.4 µM (active), the IC50 [12] was 8.25 µM (active) and the IC50 [13] was > 69.5 µM (inactive).
